In paper PMC11324527, “Cryo-EM architecture of a near-native stretch-sensitive membrane microdomain” (Nature, 2024):

Columns and labels:
[1] = target: T1, Pil1 (recombinant, reconstituted tubules) (Saccharomyces cerevisiae, UniProt P53252); assay: cryo-EM helical reconstruction of reconstituted tubules; assay type: binding
T1 construct: PIL1 in pCoofy6, 6xHis-Sumo3 tag cleaved by SenP2, E. coli BL21(DE3)pLysS; homodimer in helical lattice on lipid tubules; model stops before residue 275
T1 sequence (P53252 1-339): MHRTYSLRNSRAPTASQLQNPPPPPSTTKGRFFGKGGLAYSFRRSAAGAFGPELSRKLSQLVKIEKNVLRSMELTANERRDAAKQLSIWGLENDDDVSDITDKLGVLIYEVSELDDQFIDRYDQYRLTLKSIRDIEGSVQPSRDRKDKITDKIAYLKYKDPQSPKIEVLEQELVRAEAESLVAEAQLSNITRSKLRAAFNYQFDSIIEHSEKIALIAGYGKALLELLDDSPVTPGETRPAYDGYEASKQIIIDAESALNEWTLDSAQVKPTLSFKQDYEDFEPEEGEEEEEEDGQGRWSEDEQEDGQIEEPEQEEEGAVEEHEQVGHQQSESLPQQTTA

Pil1–mCherry = Pil1–mCherry (Saccharomyces cerevisiae, UniProt P53252); settings: labelled compound; 1% PI(4,5)P2; PI(4,5)P2-dependent; pH 7.4, 150 mM KoAc, 2 mM MgAc
[2] = target: the molecule itself; assay: cryo-EM structure; native-source eisosome tubules isolated from S. cerevisiae with bound plasma membrane bilayer; helical reconstruction of nine tubule types, symmetry expansion and density subtraction; dimers in a helical lattice
[3] = target: the molecule itself; assay: cryo-EM structure; 15-20 uM recombinant Pil1 with about 2 mg/ml LUVs of known lipid mixtures, 30 °C for one hour, 20 mM HEPES pH 7.4, 150 mM KoAc, 2 mM MgAc; helical reconstruction; dimers in a helical lattice

## CCCCCCCC/C=C\CCCCCCCC(=O)OC[C@H](COP(=O)(O)OC[C@H](N)C(=O)O)OC(=O)CCCCCCC/C=C\CCCCCCCC [DOPS]
[1]; +PI(4,5)P2/+sterol (15% cholesterol) mixture, site R43, K66, R70
  cryo-EM helical reconstruction of reconstituted tubules: This density accommodates a phosphatidylserine (PS) lipid (DOPS is present in our lipid mixtures)

## CC1=CC(C)=[N+]2C1=C(CC[C@@H](C)[C@H]1CC[C@H]3[C@@H]4CC=C5C[C@@H](O)CC[C@]5(C)[C@H]4CC[C@]13C)c1c(C)cc(C)n1[B-]2(F)F [TF-cholesterol]
Pil1–mCherry
  mobile fraction: immobilized fraction of cholesterol interacts strongly with Pil1 and/or other lipids bound to the protein

## CC(C)CCC[C@@H](C)[C@H]1CC[C@H]2[C@@H]3CC=C4C[C@@H](O)CC[C@]4(C)[C@H]3CC[C@]12C [cholesterol]
[1]; +PI(4,5)P2/+sterol (15% cholesterol), void pattern below amphipathic helix, sterol not modelled
  cryo-EM helical reconstruction of reconstituted tubules: this pattern results from the stable association of sterol molecules with the AH

B1: Pil1 (native-source eisosome) (natural protein, S. cerevisiae (endogenous in yeast), UniProt P53252 1-339, looked up)
chain: T1 sequence (P53252 1-339)
notes: Pil1, BAR-domain eisosome protein of S. cerevisiae; model built up to residue 274 (C-terminal region from residue 275 removed, no density); Stands in the tubules as dimers in a helical lattice; also called Pil1/Lsp1; PIL1_YEAST; source: endogenous, untagged, S. cerevisiae
[2]
  stoichiometry N: 2

B2: Recombinant Pil1 (natural protein, S. cerevisiae, UniProt P53252 1-339, looked up)
chain: T1 sequence (P53252 1-339)
notes: Pil1 of S. cerevisiae, PIL1 cloned into pCoofy6 with primers from the start codon to the stop codon; Vector pCoofy6 (Addgene plasmid 43990) gives 6xHis-Sumo3; the Sumo3 tag was cleaved off with SenP2; It forms dimers in a helical lattice on liposomes; also called purified Pil1; reconstituted Pil1; source: E. coli BL21(DE3)pLysS, purified (HisTrap, HiTrap Q, SenP2 cleavage, Superdex 200); not …
[3]
  stoichiometry N: 2
